Test results: US20220220152A1, “BIVALENT ANTAGONISTS OF INHIBITORS OF APOPTOSIS PROTEINS” (Hepagene Therapeutics (HK) Limited, priority 2019, published 2022)

Experiments:
[1] = molecular target: T1, cIAP2-BIR3 (Homo sapiens, UniProt Q13489); assay: cIAP2-BIR3 fluorescence polarization binding assay; details: FP, probe AbuRPFK-5FAM (SM5F) 5 nM, cIAP2-BIR3 80 nM, 60 min at 25° C.
T1 construct: cIAP2-BIR3; purchased Reaction Biology APT-11-372
Excerpt: (§1) IAPs are one main cause of cancer development and may result from overexpression of anti-apoptotic proteins. This protocol establishes three binding assays for […] Bir3 domain, cIAP1 and cIAP2 using FP (fluorescence polariation) technology. The fluorescence probe used is a synthetic peptide conjugated to 5-carboxyfluorescein (AbuRPFK-5FAM). The fluorescence polarization value (mP) was detected by Envision, which was used to reflect the binding degree of protein and fluorescent marker.
(§2) • a. Prepare 100 times of the final cpd concentration in appropriate tube and transfer 5 uL cpd to 45 μL 1× reaction buffer with 10% DMSO • b. The final reference cpd concentration is 10000, 3333.3, 1111.1, 370.4, 123.4, 41.2, 13.7, 4.57, 1.52, 0.51, 0.17 and 0 nM. So the 100 times of the concentration is 1000, 333.3, 111.1, 37.04, 12.34, 4.12, […], 0.15, 0.05, 0.017 and 0 μM. The final test cpds concentration is 3333.3, 1111.1, 370.4, 123.4, 41.2, 13.7, 4.57, 1.52, 0.51, 0.17, 0.057 and 0 nM. So the 100 times of the concentration is 333.3, 111.1, 37.04, 12.34, 4.12, […], 0.15, 0.05, 0.017, 0.0057 and […] • c. Add 8 μL/well each dose enzyme to 384 wen microplate (ProxiPlate-384 F Plus, 6008260) using multichannel pipette, prepared in Table 3. • d. Centrifuge at 1000 rpm • e. Add 2 μL/well cpd to 384 well microplate (ProxiPlate-384 F Plus, 6008260) using multichannel pipette, prepared in step a). • f. Centrifuge at 1000 rpm RT, 15 min. • g Start the assay by adding 10 uL/well substrate (prepared in Table 4) to the same 384 wen microplate using multichannel pipette. • h. Centrifuge at 1000 rpm. • i. Cover the assay plate and incubate for 60 min at 25° C. • j. Read on Envision 2104 for mP and plot the IC50s with mP values. • k. Data analysis: IC50s were determined based on a non-linear regression analysis of data collected.

[2] = molecular target: T2, XIAP-BIR3 (Homo sapiens, UniProt P98170); assay: XIAP-BIR3 fluorescence polarization binding assay; details: FP, probe AbuRPFK-5FAM (SM5F) 5 nM, XIAP-BIR3 40 nM, 60 min at 25° C.
T2 construct: XIAP-BIR3; purchased Reaction Biology APT-11-374
Excerpt: as §1, §2

[3] = molecular target: T3, cIAP1-BIR3 (Homo sapiens, UniProt Q13490); assay: cIAP1-BIR3 fluorescence polarization binding assay; details: FP, probe AbuRPFK-5FAM (SM5F) 5 nM, cIAP1-BIR3 15 nM, 60 min at 25° C.
T3 construct: cIAP1-BIR3; purchased Reaction Biology APT-11-370
Excerpt: as §1, §2

T1 sequence (Q13489 238-349 limits assumed): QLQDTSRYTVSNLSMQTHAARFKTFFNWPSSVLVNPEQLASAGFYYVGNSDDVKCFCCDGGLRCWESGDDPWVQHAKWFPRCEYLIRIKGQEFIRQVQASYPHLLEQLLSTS
T3 sequence (Q13490 253-363 limits assumed): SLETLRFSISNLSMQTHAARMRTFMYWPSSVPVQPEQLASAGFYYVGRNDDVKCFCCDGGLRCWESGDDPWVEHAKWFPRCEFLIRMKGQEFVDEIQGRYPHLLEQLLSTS
T2 sequence (P98170 241-356 limits assumed): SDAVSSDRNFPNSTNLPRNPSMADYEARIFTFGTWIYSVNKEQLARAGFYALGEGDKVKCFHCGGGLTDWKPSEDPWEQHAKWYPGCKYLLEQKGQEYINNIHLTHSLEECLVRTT

Which results are given for `CN[C@@H](C)C(=O)N[C@H](C(=O)N1CCC[C@H]1C(=O)N[C@@H]1CCCc2c(Nc3cccc4c3CCC[C@H]4NC(=O)[C@@H]3CCCN3C(=O)[C@@H](NC(=O)[C@H](C)NC)C3CCCCC3)cccc21)C1CCCCC1` [Compound VI, (S)-1-((S)-2-cyclohexyl-2-((S)-2-(methylamino)propanamido)acetyl)-N—((R)-5-(((R)-5-((S)-1-((S)-2-cyclohexyl-2-((S)-2-(methylamino)propanamido)acetyl)pyrrolidine-2-carboxamido)-5,6,7,8-tetrahydronaphthalen-1-yl)amino)-1,2,3,4-tetrahydronaphthalen-1-yl)pyrrolidine-2-carboxamide]?
IC50 [1]: 10 to 100 nM; IC50 [2]: 10 to 100 nM; IC50 [3]: 1 to 10 nM

For “(2S,4S)-1-((S)-2-cyclohexyl-2-((S)-2-(methylamino)propanamido)acetyl)-N—((R)-5-(2-(2-(((R)-5-((2S,4S)-1-((S)-2-cyclohexyl-2-((S)-2-(methylamino)propanamido)acetyl)-4-hydroxypyrrolidine-2-carboxamido)-5,6,7,8-tetrahydronaphthalen-1-yl)oxy)ethoxy) ethoxy)-1,2,3,4-tetrahydmnaphthalen-1-yl)-4-hydroxypyrrolidine-2-carboxamide Formic Acid [Compound II-C]”, which IC50 [1] is on record?
Its IC50 is 10 to 100 nM.

What about the IC50 [2] of the same molecule?
Its IC50 is 10 to 100 nM.

What about the IC50 [3] of the same molecule?
The IC50 was 1 to 10 nM.

With `CN[C@@H](C)C(=O)N[C@H](C(=O)N1CCC[C@H]1C(=O)N[C@@H]1CCCc2c(Oc3cccc4c3CCC[C@H]4NC(=O)[C@@H]3CCCN3C(=O)[C@@H](NC(=O)[C@H](C)NC)C(C)C)cccc21)C(C)C` [Compound X-B, (S)-1-(Methyl-L-alanyl-L-valyl)-N—((R)-5-(((R)-5-((S)-1-(methyl-L-alanyl-L-valyl)pyrrolidine-2-carboxamido)-5,6,7,8-tetrahydronaphthalen-1-yl)oxy)-1,2,3,4-tetrahydronaphthalen-1-yl)pyrrolidine-2-carboxamide] as the molecule, how does the IC50 [1] read?
Its IC50 is 10 to 100 nM.

And the IC50 [2]?
The IC50 was 10 to 100 nM.

What about the IC50 [3] of the same molecule?
The IC50 was 1 to 10 nM.

What does the source list for `CN[C@@H](C)C(=O)N[C@H](C(=O)N1CCC[C@H]1C(=O)N[C@@H]1CCOc2c(-c3cccc4c3OCC[C@H]4NC(=O)[C@@H]3CCCN3C(=O)[C@@H](NC(=O)[C@H](C)NC)C3CCCCC3)cccc21)C1CCCCC1` [Compound V-P, (S)-1-((S)-2-cyclohexyl-2-((S)-2-(methylamino)propanamido)acetyl)-N-((4R,4′R)-4′-((S)-1-((S)-2-cyclohexyl-2-((S)-2-(methylamino)propanamido)acetyl)pyrrolidine-2-carboxamido)-[8,8′-bichroman]-4-yl)pyrrolidine-2-carboxamide]?
IC50 [1]: 10 to 100 nM; IC50 [2]: 10 to 100 nM; IC50 [3]: 1 to 10 nM

With `CN[C@@H](C)C(=O)N[C@H](C(=O)N1CCC[C@H]1C(=O)N[C@@H]1CCCc2c1cccc2N1CCN(c2cccc3c2CCC[C@H]3NC(=O)[C@@H]2CCCN2C(=O)[C@@H](NC(=O)[C@H](C)NC)C(C)(C)C)CC1)C(C)(C)C` [Compound VIII-D, (2S,2′S)—N,N′-((1R,1′R)-piperazine-1,4-diylbis(1,2,3,4-tetrahydronaphthalene-5,1-diyl))bis(1-((S)-3,3-dimethyl-2-((S)-2-(methylamino)propanamido)butanoyl)pyrolidine-2-carboxamide)] as the molecule, how does the IC50 [3] read?
Its IC50 is 1 to 10 nM.

`CN[C@@H](C)C(=O)N[C@H](C(=O)N1CCC[C@H]1C(=O)N[C@@H]1CCCc2c(OCCCCCOc3cccc4c3CCC[C@H]4NC(=O)[C@@H]3CCCN3C(=O)[C@@H](NC(=O)[C@H](C)NC)C(C)C)cccc21)C(C)C` [Compound I-G, (2S)-1-[(2S)-3-methyl-2-[(2S)-2-(methylamino)propanamido]butanoyl]-N-[(1R)-5-[(5-[[(5R)-5-[(2S)-1-[(2S)-3-methyl-2-[(2S)-2-(methylamino)propanamido]butanoyl]pyrrolidine-2-amido]-5,6,7,8-tetrahydronaphthalen-1-yl]oxy]pentyl)oxy]-1,2,3,4-tetrahydronaphthalen-1-yl]pyrrolidine-2-carboxamide] was tested. Which IC50 [1] did it give?
Its IC50 is 10 to 100 nM.

And the IC50 [2]?
The IC50 was 10 to 100 nM.

What about the IC50 [3] of the same molecule?
Its IC50 is 1 to 10 nM.

Which IC50 [1] does the source give for `CN[C@@H](C)C(=O)N[C@H](C(=O)N1CCC[C@H]1C(=O)N[C@@H]1CCCc2c(OCCCCCOc3cccc4c3CCC[C@H]4NC(=O)[C@@H]3CCCN3C(=O)[C@@H](NC(=O)[C@H](C)NC)C3CCOCC3)cccc21)C1CCOCC1` [Compound I-A, (S)-1-((S)-2-((S)-2-(methylamino)propanamido)-2-(tetrahydro-2H-pyran-4-yl)acetyl)-N—((R)-5-((5-(((R)-5-((S)-1-((S)-2-((S)-2-(methylamino)propanamido)-2-(tetrahydro-2H-pyran-4-yl)acetyl)pyrrolidine-2-carboxamido)-5,6,7,8-tetrahydronaphthalen-1-yl)oxy)pentyl)oxy)-1,2,3,4-tetrahydmnaphthalen-1-yl)pyrrolidine-2-carboxamide] here?
Its IC50 is 1 to 10 nM.

And the IC50 [2]?
Its IC50 is 10 to 100 nM.

And the IC50 [3]?
Its IC50 is 1 to 10 nM.

For `CN[C@@H](C)C(=O)N[C@H](C(=O)N1CCC[C@H]1C(=O)N[C@@H]1CCCc2c(-c3ccc4cc(-c5cccc6c5CCC[C@H]6NC(=O)[C@@H]5CCCN5C(=O)[C@@H](NC(=O)[C@H](C)NC)C5CCCCC5)ccc4c3)cccc21)C1CCCCC1` [Compound III-B, (2S)-1-[(2S)-2-Cyclohexyl-2-[(2S)-2-(methylamino)propanamido]acetyl]-N-[(1R)-5-{6-[(5R)-5-[(2S)-1-[(2S)-2-cyclohexyl-2-[(2S)-2-(methylamino)propanamido]acetyl]pyrrolidine-2-amido]-5,6,7,8-tetrahydronaphthalen-1-yl]naphthalen-2-yl}-1,2,3,4-tetrahydmnaphthalen-1-yl]pyrrolidine-2-carboxamide], which IC50 [1] is on record?
The IC50 was 10 to 100 nM.

What about the IC50 [2] of the same molecule?
The IC50 was 10 to 100 nM.

What about the IC50 [3] of the same molecule?
Its IC50 is 1 to 10 nM.

How did the IC50 [1] turn out when `CN[C@@H](C)C(=O)N[C@H](C(=O)N1CCC[C@H]1C(=O)N[C@@H]1CCOc2c(-c3cccc4c3OCC[C@H]4NC(=O)[C@@H]3CCCN3C(=O)[C@@H](NC(=O)[C@H](C)NC)C(C)C)cccc21)C(C)C` [Compound V-C, (2S)-1-[(2S)-3-methyl-2-[(2S)-2-(methylamino)propanamido]butanoyl]-N-[(4R)-8-[(4R)-4-[(2S)-1-[(2S)-3-methyl-2-[(2S)-2-(methylamino)propanamido]butanoyl]pyrrolidine-2-amido]-3,4-dihydro-2H-1-benzopyran-8-yl]-3,4-dihydro-2H-1-benzopyran-4-yl]pyrrolidine-2-carboxamide] was run?
Its IC50 is 10 to 100 nM.

And the IC50 [2]?
The IC50 was 10 to 100 nM.

And the IC50 [3]?
Its IC50 is 1 to 10 nM.

For `CC[C@H](NC(=O)[C@H](C)NC)C(=O)N1CCC[C@H]1C(=O)N[C@@H]1CCCc2c1cccc2N1CCN(c2cccc3c2CCC[C@H]3NC(=O)[C@@H]2CCCN2C(=O)[C@H](CC)NC(=O)[C@H](C)NC)CC1` [VIII-E, (2S,2'S)—N,N′-((1R,1′R)-piperazine-1,4-diylbis(1,2,3,4-tetrahydonaphthalene-5,1-diyl))bis(1-((S)-2-((S)-2-(methylamino)propanamido)butanoyl)pyrrolidine-2-carboxamide)], which IC50 [3] is on record?
The IC50 was 1 to 10 nM.

With `CN[C@@H](C)C(=O)N[C@H](C(=O)N1CCC[C@H]1C(=O)N[C@@H]1CCCc2c1cccc2N1CCN(c2cccc3c2CCC[C@H]3NC(=O)[C@@H]2CCCN2C(=O)[C@@H](NC(=O)[C@H](C)NC)C(C)C)CC1)C(C)C` [VIII-F, (2S,2'S)—N,N′-((1R,1′R)-piperazine-1,4-diylbis(1,2,3,4-tetrahydonaphthalene-5,1-diyl))bis(1-(methyl-L-alanyl-L-valyl)pyrrolidine-2-carboxamide)] as the molecule, how does the IC50 [3] read?
The IC50 was 1 to 10 nM.

Which IC50 [3] does the source give for `CN[C@@H](C)C(=O)N[C@H](C(=O)N1CCC[C@H]1C(=O)N[C@@H]1CCCc2c1cccc2N1CCN(c2cccc3c2CCC[C@H]3NC(=O)[C@@H]2CCCN2C(=O)[C@@H](NC(=O)[C@H](C)NC)C2CCCCC2)CC1)C1CCCCC1` [Compound VIII-C, (2S,2'S)—N,N′-((1R,1′R)-piperazine-1,4-diylbis(1,2,3,4-tetrahydronaphthalene-5,1-diyl))bis(1-((S)-2-cyclohexyl-2-((S)-2-(methylamino)propanamido)acetyl)pyrrolidine-2-carboxamide)] here?
Its IC50 is 1 to 10 nM.
